Consider one molecule from patent US7915050B2, “Regulatory genes for plant differentiation and growth, and use of the same” (National University Corporation Nagoya University, priority 2005, dated 2011).

In this assay the target is T1, AtGID1b (Arabidopsis thaliana, UniProt Q9LYC1).
T1 construct: made in house; host or cells: E. coli
T1 sequence (Q9LYC1 1-358): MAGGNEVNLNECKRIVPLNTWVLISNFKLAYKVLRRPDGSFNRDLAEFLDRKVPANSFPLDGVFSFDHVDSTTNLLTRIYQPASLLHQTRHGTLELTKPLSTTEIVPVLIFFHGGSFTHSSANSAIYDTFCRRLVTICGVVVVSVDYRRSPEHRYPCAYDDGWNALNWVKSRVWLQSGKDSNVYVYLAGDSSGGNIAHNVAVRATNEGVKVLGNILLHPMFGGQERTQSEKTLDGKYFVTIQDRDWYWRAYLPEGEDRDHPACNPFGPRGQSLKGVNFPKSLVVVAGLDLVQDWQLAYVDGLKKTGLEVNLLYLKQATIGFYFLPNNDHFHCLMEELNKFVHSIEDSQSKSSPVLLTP
As to the kind of experiment: Competitive ability of GA in AtGID1-GA binding (AtGID1b). As to the method: In the gibberellin-binding assay, [1,2,16,17-^3H4]16,17-dihydro-GA4 was used as a labeled GA4. In vitro GA-binding assays were carried out using previous methods with some modifications (Nakajima, M. et al., Biochem. Biophys. Res. Comm. 241, 782-786 (1997)). The purified recombinant GID1 protein (400 pmol) was dissolved in 300 μl of binding buffer [20 mM Tris-HCl (pH 7.6), 5 mM 2-mercaptoethanol, and 0.1 M NaCl], and incubated with 100 μl of ^3H4-16,17-dihydroGA4 (6 pmol) for two hours at 25° C., either in the absence of non-labeled GA4 (total binding) or in the presence of 833-fold excess non-labeled GA4 (total non-specific binding). Then, 0.1 ml of the reaction mixture was loaded onto a NAP-5 column (Amersham Biosciences, Piscataway, N.J.). The eluate of the binding buffer (0.6 ml) was discarded, the subsequent eluate (0.2 ml) was collected, and the radioactivity was measured. The specific binding activity, reflecting the number of displaceable GA binding sites, was calculated by subtracting the amount of nonspecific binding from the amount of total binding. The same as above can also be carried out for other GAs.
Specifically, the coding region of the AtGID1 gene was amplified by PCR using specific primers designed based on the full-length cDNA sequence of the AtGID1 gene and having appropriate restriction sites at each end. After confirmation by sequence analysis, each cDNA fragment was ligated into pET32a vector (Novagen/Merck Biosciences, Madison, Wis., USA) or pGEX-4T-2 vector (Amersham Biosciences, Piscataway, N.J., USA; currently, a part of GE Healthcare). The production of recombinant proteins was confirmed by SDS-PAGE; vector cassettes were used as negative controls. GA binding assays were carried out similarly as described above using [1,2,16,17-^3H4]-16,17-dihydro-GA4 (4.55 TBq/mmol), which was custom-made by DuPont/NEN (Boston, Mass., USA). Non-labeled GA4 (1.25 mM) was used to measure non-specific binding. Saturation experiments for the kinetic analysis were carried out using ten concentrations of 16,17-dihydro-GA4 within the range of 25 to 1,500 nM. Competition assays were performed using [1,2,16,17-^3H4]-16,17-dihydro-GA4 at 15 nM and five concentrations of the non-labeled competitor. Recombinant RGA and GAI proteins were prepared using pET32a by a previously described method.
The ligand selectivity of each AtGID1 was examined by observing the competitive inhibition, by the addition of GA to the assay mixtures, of the binding between the recombinant proteins and tritiated 16,17-dihydro-GA4 (Table 2). The ligand selectivity was evaluated using the concentration of GA that inhibits 50% of the tracer (15 nM) binding (IC50 value).

The term IC50 denotes the concentration that inhibits the measured activity by half. Regarding `CC1C[C@]23C[C@H]1CCC2[C@]12CC[C@H](O)[C@](C)(C(=O)O1)[C@H]2[C@@H]3C(=O)O` (some centres unmarked) [H2-GA4, 16,17-dihydro-GA4], the “relative value, taking the value for GA4 as 100” value was “(8) %”. This molecule yielded a concentration for half-maximal inhibition (IC50) (tracer 15 nM, mean of at least two measurements) of 400 nM.
